According to patent US11420973B2, “Amide substituted indole compounds useful as TLR inhibitors” (BRISTOL-MYERS SQUIBB COMPANY, priority 2017, dated 2022):
Like-named read-outs stand apart in the source and are kept apart here.

Legend:
[1] = molecular target: human TLR7 (Homo sapiens (Human), UniProt Q9NYK1); assay: TLR7 inhibition reporter assay (HEK-Blue SEAP reporter, gardiquimod stimulation); type: cell-based; conditions: HEK-Blue cells overexpressing human TLR7, gardiquimod 7.5 μM
[2] = molecular target: human TLR8 (Homo sapiens (Human), UniProt Q9NR97); assay: TLR8 inhibition reporter assay (HEK-Blue SEAP reporter, R848 stimulation);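 also: SEAP driven by IFN-β minimal promoter with NF-κB and AP-1 sites, 22 h incubation, compounds 0.05 nM–50 µM, inhibition scaled between agonist plus DMSO and reference inhibitor wells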
Chain of human TLR8 (Q9NR97 27-1041): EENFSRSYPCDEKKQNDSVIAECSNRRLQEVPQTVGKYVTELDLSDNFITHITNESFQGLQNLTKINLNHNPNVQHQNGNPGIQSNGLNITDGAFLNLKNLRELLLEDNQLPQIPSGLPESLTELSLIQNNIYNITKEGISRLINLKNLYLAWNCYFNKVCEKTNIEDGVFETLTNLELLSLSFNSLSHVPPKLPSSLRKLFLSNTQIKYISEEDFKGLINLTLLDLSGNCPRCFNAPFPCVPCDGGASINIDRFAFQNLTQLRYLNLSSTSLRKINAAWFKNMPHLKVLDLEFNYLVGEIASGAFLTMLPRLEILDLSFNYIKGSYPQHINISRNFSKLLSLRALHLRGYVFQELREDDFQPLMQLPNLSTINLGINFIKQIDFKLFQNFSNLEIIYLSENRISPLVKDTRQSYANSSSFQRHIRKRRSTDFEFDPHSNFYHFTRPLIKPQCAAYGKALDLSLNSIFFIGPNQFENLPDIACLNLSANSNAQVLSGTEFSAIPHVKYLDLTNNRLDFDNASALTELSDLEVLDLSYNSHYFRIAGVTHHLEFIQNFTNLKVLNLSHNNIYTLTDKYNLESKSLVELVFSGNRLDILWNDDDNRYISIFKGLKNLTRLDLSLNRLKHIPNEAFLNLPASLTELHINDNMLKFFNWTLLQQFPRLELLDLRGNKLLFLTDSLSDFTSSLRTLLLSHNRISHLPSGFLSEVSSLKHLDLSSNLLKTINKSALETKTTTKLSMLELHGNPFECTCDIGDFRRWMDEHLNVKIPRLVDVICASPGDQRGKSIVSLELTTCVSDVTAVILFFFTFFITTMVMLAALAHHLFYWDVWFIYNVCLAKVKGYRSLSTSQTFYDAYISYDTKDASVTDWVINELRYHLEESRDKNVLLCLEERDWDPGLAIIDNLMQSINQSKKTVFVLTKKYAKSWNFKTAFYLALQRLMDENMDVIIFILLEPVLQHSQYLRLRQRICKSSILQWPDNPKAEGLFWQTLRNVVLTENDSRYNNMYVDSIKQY

[3] = molecular target: human TLR9 (Homo sapiens (Human), UniProt Q9NR96); assay: TLR9 inhibition reporter assay (HEK-Blue SEAP reporter, ODN2006 stimulation);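 also: SEAP reporter under IFN-β minimal promoter with five NF-κB and AP-1 sites, 22 h incubation, compounds 0.05 nM–50 µM, inhibition relative to agonist plus DMSO versus known inhibitor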
Chain of human TLR9 (Q9NR96 26-1032): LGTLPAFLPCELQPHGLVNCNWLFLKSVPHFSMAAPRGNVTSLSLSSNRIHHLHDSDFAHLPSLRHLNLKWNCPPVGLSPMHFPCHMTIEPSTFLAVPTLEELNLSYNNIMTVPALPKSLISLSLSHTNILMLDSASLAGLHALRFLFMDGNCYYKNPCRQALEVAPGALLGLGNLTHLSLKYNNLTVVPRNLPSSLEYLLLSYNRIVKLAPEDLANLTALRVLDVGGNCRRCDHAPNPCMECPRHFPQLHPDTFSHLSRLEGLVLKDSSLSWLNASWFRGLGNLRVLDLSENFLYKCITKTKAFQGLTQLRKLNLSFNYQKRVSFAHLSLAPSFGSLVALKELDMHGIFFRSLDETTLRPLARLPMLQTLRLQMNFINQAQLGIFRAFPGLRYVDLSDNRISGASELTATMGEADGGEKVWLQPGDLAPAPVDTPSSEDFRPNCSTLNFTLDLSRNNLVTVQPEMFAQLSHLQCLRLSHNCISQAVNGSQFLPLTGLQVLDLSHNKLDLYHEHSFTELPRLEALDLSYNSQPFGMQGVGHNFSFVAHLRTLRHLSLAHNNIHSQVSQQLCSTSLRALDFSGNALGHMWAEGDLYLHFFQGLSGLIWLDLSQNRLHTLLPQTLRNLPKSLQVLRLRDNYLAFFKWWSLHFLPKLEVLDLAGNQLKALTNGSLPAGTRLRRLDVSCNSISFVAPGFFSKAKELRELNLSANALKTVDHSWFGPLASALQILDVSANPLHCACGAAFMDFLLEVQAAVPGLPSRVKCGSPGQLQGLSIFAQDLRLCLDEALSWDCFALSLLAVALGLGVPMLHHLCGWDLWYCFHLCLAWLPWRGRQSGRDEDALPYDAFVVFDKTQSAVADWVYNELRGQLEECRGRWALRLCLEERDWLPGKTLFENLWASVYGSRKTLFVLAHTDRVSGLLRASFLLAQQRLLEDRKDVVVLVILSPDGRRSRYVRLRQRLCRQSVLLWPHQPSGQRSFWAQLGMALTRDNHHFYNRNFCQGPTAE

[4] = read-out: TLR8 IC50, HEK-Blue cells overexpressing human TLR8, R848 15.9 μM, SEAP reporter
[5] = read-out: TLR9 IC50, HEK-Blue cells overexpressing human TLR9, ODN2006 5 nM, SEAP reporter

Chain of human TLR7 (Q9NYK1 27-1049): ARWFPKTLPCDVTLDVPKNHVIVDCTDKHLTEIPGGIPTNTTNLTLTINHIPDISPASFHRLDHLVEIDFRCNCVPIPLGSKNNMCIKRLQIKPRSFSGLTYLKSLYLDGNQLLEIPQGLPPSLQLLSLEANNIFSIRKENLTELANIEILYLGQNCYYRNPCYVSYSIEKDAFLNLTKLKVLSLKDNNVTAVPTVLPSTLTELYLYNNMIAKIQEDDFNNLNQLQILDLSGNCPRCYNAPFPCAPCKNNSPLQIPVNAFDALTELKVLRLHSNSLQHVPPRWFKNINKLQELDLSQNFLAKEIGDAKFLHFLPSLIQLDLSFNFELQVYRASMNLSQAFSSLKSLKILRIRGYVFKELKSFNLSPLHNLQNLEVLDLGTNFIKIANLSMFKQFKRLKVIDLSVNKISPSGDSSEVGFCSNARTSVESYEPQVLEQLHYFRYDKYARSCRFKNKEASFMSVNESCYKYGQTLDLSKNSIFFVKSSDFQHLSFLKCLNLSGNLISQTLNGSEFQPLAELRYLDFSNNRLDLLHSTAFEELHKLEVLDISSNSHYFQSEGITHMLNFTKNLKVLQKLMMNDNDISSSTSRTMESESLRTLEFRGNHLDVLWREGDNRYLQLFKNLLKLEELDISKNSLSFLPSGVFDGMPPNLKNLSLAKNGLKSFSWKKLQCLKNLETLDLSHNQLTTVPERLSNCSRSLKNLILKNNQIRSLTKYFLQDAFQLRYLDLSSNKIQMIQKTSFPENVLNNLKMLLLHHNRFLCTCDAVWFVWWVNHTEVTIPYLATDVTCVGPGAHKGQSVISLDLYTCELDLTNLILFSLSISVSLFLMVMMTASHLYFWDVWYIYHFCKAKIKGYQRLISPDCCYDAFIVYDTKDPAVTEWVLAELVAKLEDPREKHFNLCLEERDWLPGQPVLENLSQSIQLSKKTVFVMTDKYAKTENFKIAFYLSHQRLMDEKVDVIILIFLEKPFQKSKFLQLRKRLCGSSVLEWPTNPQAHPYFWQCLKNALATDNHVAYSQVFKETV

Row | Compound | IC50 [1] | IC50 [2, 4] | IC50 [3, 5] | IC50 [2] | IC50 [3]
1 | Cc1cc(-c2[nH]c3ccc(C(C)(C)C(=O)NC4CCC(N)CC4)cc3c2C(C)C)ccn1 (stereo not drawn) [Example 167, N-(4-aminocyclohexyl)-2-(3-isopropyl-2-(2-methylpyridin-4-yl)-1H-indol-5-yl)-2-methylpropanamide] | 63 nM | 36 nM | 2900 nM |  | 
2 | Cc1cc(-c2[nH]c3ccc(C(C)(C)C(=O)NC4CCCC(N)C4)cc3c2C(C)C)ccn1 (stereo not drawn) [Example 168, N-(3-aminocyclohexyl)-2-(3-isopropyl-2-(2-methylpyridin-4-yl)-1H-indol-5-yl)-2-methylpropanamide] | 96 nM | 44 nM | 2670 nM |  | 
3 | Cc1cc(-c2[nH]c3ccc(C(C)(C)C(=O)N[C@@H]4CCCC[C@H]4N)cc3c2C(C)C)ccn1 [Example 169, N—((R,2R)-2-aminocyclohexyl)-2-(3-isopropyl-2-(2-methylpyridin-4-yl)-1H-indol-5-yl)-2-methylpropanamide] | 16 nM | 7.1 nM | 899 nM |  | 
4 | Cc1cc(-c2[nH]c3ccc(C(C)(C)C(=O)N[C@H]4CCCC[C@H]4N)cc3c2C(C)C)ccn1 [Example 170, N-((1S,2R)-2-aminocyclohexyl)-2-(3-isopropyl-2-(2-methylpyridin-4-yl)-1H-indol-5-yl)-2-methylpropanamide] | 11 nM | 51 nM | 1660 nM |  | 
5 | Cc1cc(-c2[nH]c3ccc(C(C)(C)C(=O)NCCC4CCCNC4)cc3c2C(C)C)ccn1 (stereo not drawn) [Example 171, 2-(3-isopropyl-2-(2-methylpyridin-4-yl)-1H-indol-5-yl)-2-methyl-N-(2-(piperidin-3-yl)ethyl)propanamide] | 67 nM | 602 nM | 5220 nM |  | 
6 | Cc1cc(-c2[nH]c3ccc(C(C)(C)C(=O)NC[C@H]4CC[C@H](N)CC4)cc3c2C(C)C)ccn1 [Example 172, N-(((1r,4r)-4-aminocyclohexyl)methyl)-2-(3-isopropyl-2-(2-methylpyridin-4-yl)-1H-indol-5-yl)-2-methylpropanamide] | 58 nM | 325 nM | 1800 nM |  | 
7 | Cc1cc(-c2[nH]c3ccc(C(C)(C)C(=O)NCC4(O)CCN(C)CC4)cc3c2C(C)C)ccn1 [Example 173, N-((4-hydroxy-1-methylpiperidin-4-yl)methyl)-2-(3-isopropyl-2-(2-methylpyridin-4-yl)-1H-indol-5-yl)-2-methylpropanamide] | 57 nM | 150 nM | 691 nM |  | 
8 | Cc1cc(-c2[nH]c3ccc(C(C)(C)C(=O)NCC4(O)CN5CCC4CC5)cc3c2C(C)C)ccn1 (stereo not drawn) [Example 174, N-((3-hydroxyquinuclidin-3-yl)methyl)-2-(3-isopropyl-2-(2-methylpyridin-4-yl)-1H-indol-5-yl)-2-methylpropanamide] | 54 nM | 550 nM | 2060 nM |  | 
9 | Cc1cc(-c2[nH]c3ccc(C(C)(C)C(=O)N4CCNCC4)cc3c2C(C)C)ccn1 [Example 175, 2-(3-isopropyl-2-(2-methylpyridin-4-yl)-1H-indol-5-yl)-2-methyl-1-(piperazin-1-yl)propan-1-one] | 167 nM | 36 nM | 1010 nM |  | 
10 | Cc1cc(-c2[nH]c3ccc(C(C)(C)C(=O)N4CC5CC4CN5)cc3c2C(C)C)ccn1 (stereo not drawn) [Example 176, 1-(2,5-diazabicyclo[2.2.1]heptan-2-yl)-2-(3-isopropyl-2-(2-methylpyridin-4-yl)-1H-indol-5-yl)-2-methylpropan-1-one] | 260 nM | 211 nM | 8390 nM |  | 
11 | Cc1cc(-c2[nH]c3ccc(C(C)(C)C(=O)N4CCC(OC5CCNCC5)CC4)cc3c2C(C)C)ccn1 [Example 177, 2-(3-isopropyl-2-(2-methylpyridin-4-yl)-1H-indol-5-yl)-2-methyl-1-(4-(piperidin-4-yloxy)piperidin-1-yl)propan-1-one] | 128 nM | 58 nM | 1460 nM |  | 
12 | Cc1cc(-c2[nH]c3ccc(C(C)(C)C(=O)N4CCC5(CCNC5)C4)cc3c2C(C)C)ccn1 (stereo not drawn) [Example 178, 2-(3-isopropyl-2-(2-methylpyridin-4-yl)-1H-indol-5-yl)-2-methyl-1-(2,7-diazaspiro[4.4]nonan-2-yl)propan-1-one] | 61 nM | 859 nM | 1660 nM |  | 
13 | Cc1cc(-c2[nH]c3ccc(C(C)(C)C(=O)N4CC5(CCNCC5)C4)cc3c2C(C)C)ccn1 [Example 179, 2-(3-isopropyl-2-(2-methylpyridin-4-yl)-1H-indol-5-yl)-2-methyl-1-(2,7-diazaspiro[3.5]nonan-2-yl)propan-1-one] | 35 nM | 1130 nM | 4930 nM |  | 
14 | Cc1cc(-c2[nH]c3ccc(C(C)(C)C(=O)N4CCCC5(CNC5)C4)cc3c2C(C)C)ccn1 [Example 180, 2-(3-isopropyl-2-(2-methylpyridin-4-yl)-1H-indol-5-yl)-2-methyl-1-(2,6-diazaspiro[3.5]nonan-6-yl)propan-1-one] | 147 nM | 306 nM | 1000 nM |  | 
15 | Cc1cc(-c2[nH]c3ccc(C(C)(C)C(=O)N4CCC5(CCNC5)CC4)cc3c2C(C)C)ccn1 [Example 181, 2-(3-isopropyl-2-(2-methylpyridin-4-yl)-1H-indol-5-yl)-2-methyl-1-(2,8-diazaspiro[4.5]decan-8-yl)propan-1-one] | 76 nM | 1240 nM | 1950 nM |  | 
16 | Cc1cc(-c2[nH]c3ccc(C(C)(C)C(=O)N4CCCCC4C4CCNCC4)cc3c2C(C)C)ccn1 (stereo not drawn) [Example 182, 1-([2,4′-bipiperidin]-1-yl)-2-(3-isopropyl-2-(2-methylpyridin-4-yl)-1H-indol-5-yl)-2-methylpropan-1-one] | 15 nM | 81 nM | 716 nM |  | 
17 | Cc1cc(-c2[nH]c3ccc(C(C)(C)C(=O)N4CC5CNCC5C4)cc3c2C(C)C)ccn1 (stereo not drawn) [Example 183, 1-(hexahydropyrrolo[3,4-c]pyrrol-2(1H)-yl)-2-(3-isopropyl-2-(2-methylpyridin-4-yl)-1H-indol-5-yl)-2-methylpropan-1-one] | 30 nM | 103 nM | 387 nM |  | 
18 | Cc1cc(-c2[nH]c3ccc(C(C)(C)C(=O)N4CCCC5(CCNC5)C4)cc3c2C(C)C)ccn1 (stereo not drawn) [Example 184, 2-(3-isopropyl-2-(2-methylpyridin-4-yl)-1H-indol-5-yl)-2-methyl-1-(2,7-diazaspiro[4.5]decan-7-yl)propan-1-one] | 91 nM | 139 nM | 533 nM |  | 
19 | Cc1cc(-c2[nH]c3ccc(C(C)(C)C(=O)N4CC5CNC5C4)cc3c2C(C)C)ccn1 (stereo not drawn) [Example 185, 1-(3,6-diazabicyclo[3.2.0]heptan-3-yl)-2-(3-isopropyl-2-(2-methylpyridin-4-yl)-1H-indol-5-yl)-2-methylpropan-1-one] | 71 nM | 554 nM | 11900 nM |  | 
20 | Cc1cc(-c2[nH]c3ccc(C(C)C(=O)NC4CCC5CNCC54)cc3c2C(C)C)ccn1 (stereo not drawn) [Example 186, 2-(3-isopropyl-2-(2-methylpyridin-4-yl)-1H-indol-5-yl)-N-(octahydrocyclopenta[c]pyrrol-4-yl)propanamide] | 146 nM | 100 nM | 599 nM |  | 
21 | Cc1cc(-c2[nH]c3ccc(C(C)C(=O)NC4CCC5CNCC54)cc3c2C(C)C)ccn1 (stereo not drawn) [Example 187, 2-(3-isopropyl-2-(2-methylpyridin-4-yl)-1H-indol-5-yl)-N-(octahydrocyclopenta[c]pyrrol-4-yl)propanamide] | 223 nM | 496 nM | 1350 nM |  | 
22 | Cc1cc(-c2[nH]c3ccc(C(C)C(=O)N[C@@H]4CCNC4)cc3c2C(C)C)ccn1 (stereo partly drawn) [Example 188, 2-(3-isopropyl-2-(2-methylpyridin-4-yl)-1H-indol-5-yl)-N—((R)-pyrrolidin-3-yl)propanamide] | 458 nM | 387 nM | 2620 nM |  | 
23 | Cc1cc(-c2[nH]c3ccc(C(C)C(=O)N[C@H]4CCNC4)cc3c2C(C)C)ccn1 (stereo partly drawn) [Example 189, 2-(3-isopropyl-2-(2-methylpyridin-4-yl)-1H-indol-5-yl)-N—((S)-pyrrolidin-3-yl)propanamide] | 268 nM | 246 nM | 1680 nM |  | 
24 | Cc1cc(-c2[nH]c3ccc(C(C)C(=O)N[C@H]4CCNC4)cc3c2C(C)C)ccn1 (stereo partly drawn) [Example 190, 2-(3-isopropyl-2-(2-methylpyridin-4-yl)-1H-indol-5-yl)-N—((S)-pyrrolidin-3-yl)propanamide] | 137 nM | 211 nM | 957 nM |  | 
25 | Cc1cc(-c2[nH]c3ccc(C(C)C(=O)NC4CN5CCC4CC5)cc3c2C(C)C)ccn1 (stereo not drawn) [Example 191, 2-(3-isopropyl-2-(2-methylpyridin-4-yl)-1H-indol-5-yl)-N-(quinuclidin-3-yl)propanamide] | 175 nM | 209 nM | 1290 nM |  | 
26 | Cc1cc(-c2[nH]c3ccc(C(C)C(=O)NC4CN5CCC4CC5)cc3c2C(C)C)ccn1 (stereo not drawn) [Example 192, 2-(3-isopropyl-2-(2-methylpyridin-4-yl)-1H-indol-5-yl)-N-(quinuclidin-3-yl)propanamide] | 71 nM | 142 nM | 1530 nM |  | 
27 | Cc1cc(-c2[nH]c3ccc(C(C)C(=O)NC4CCNCC4)cc3c2C(C)C)ccn1 (stereo not drawn) [Example 193, 2-(3-isopropyl-2-(2-methylpyridin-4-yl)-1H-indol-5-yl)-N-(piperidin-4-yl)propanamide] | 203 nM | 147 nM | 3370 nM |  | 
28 | Cc1cc(-c2[nH]c3ccc(C(C)C(=O)NC4CCN(C(C)C)CC4)cc3c2C(C)C)ccn1 (stereo not drawn) [Example 194, 2-(3-isopropyl-2-(2-methylpyridin-4-yl)-1H-indol-5-yl)-N-(1-isopropylpiperidin-4-yl)propanamide] | 152 nM |  |  | 106 nM | 3890 nM
